Laboratory results taken from patent US10994015B2, “EGFR proteolysis targeting chimeric molecules and associated methods of use” (Arvinas Operations, Inc., priority 2016, dated 2021).
pIC50: −log10 of the molar value.

Legend:
EGFR L858R/T790M = EGFR L858R/T790M (Homo sapiens (Human), UniProt P00533, L858R/T790M); test: TR-FRET assay for ERBB kinases; format: biochemical; conditions: geometric mean if measured more than once
Outline: (§1)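 Kinase + cmpd preinc 10 min; start with mix of 3 mM ATP / 30 uM fluorescein poly-GluTyr (mix concs); 10 min RT; stop with 5 nM Tb-pY20 Ab / 40 mM EDTA. Buffer 50 mM HEPES pH 7.5, 10 mM MgCl2.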

EGFR WT = EGFR WT (Homo sapiens (Human), UniProt P00533); test: TR-FRET assay for ERBB kinases; format: biochemical; conditions: geometric mean if measured more than once
Sequence of EGFR WT (P00533 25-1210): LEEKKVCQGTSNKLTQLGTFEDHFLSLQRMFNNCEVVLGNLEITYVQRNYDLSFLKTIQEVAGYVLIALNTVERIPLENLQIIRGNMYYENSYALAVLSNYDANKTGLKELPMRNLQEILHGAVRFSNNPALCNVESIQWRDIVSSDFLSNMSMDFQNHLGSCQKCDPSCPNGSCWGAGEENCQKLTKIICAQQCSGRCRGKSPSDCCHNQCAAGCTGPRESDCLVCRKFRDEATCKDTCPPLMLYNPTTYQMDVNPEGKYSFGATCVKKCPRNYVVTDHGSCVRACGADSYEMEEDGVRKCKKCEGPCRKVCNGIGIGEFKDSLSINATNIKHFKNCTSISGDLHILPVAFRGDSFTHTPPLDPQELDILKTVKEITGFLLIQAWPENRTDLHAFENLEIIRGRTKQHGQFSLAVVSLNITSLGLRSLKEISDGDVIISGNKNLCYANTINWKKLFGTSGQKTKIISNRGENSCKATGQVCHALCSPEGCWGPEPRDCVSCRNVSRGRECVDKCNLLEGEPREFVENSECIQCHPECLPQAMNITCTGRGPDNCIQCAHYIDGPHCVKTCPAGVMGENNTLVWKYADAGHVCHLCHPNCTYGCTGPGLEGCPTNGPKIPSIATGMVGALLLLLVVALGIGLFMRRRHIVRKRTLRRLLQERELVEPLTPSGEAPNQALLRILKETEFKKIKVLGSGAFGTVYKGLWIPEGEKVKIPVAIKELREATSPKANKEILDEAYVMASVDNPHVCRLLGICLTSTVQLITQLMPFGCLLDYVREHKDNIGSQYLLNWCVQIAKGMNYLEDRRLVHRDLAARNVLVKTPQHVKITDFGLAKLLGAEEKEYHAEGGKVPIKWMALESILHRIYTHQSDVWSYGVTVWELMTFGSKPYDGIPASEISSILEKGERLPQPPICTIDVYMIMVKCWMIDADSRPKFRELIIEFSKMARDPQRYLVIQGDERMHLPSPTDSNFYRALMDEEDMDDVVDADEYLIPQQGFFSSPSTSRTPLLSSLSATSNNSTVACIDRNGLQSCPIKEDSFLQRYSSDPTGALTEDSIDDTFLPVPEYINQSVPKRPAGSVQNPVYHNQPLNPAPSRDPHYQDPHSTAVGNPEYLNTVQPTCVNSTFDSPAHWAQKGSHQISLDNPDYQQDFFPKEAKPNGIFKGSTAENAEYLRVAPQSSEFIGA
Outline: as §1

EGFR L858R/T790M/C797S = EGFR L858R/T790M/C797S (Homo sapiens (Human), UniProt P00533, C797S/L858R/T790M); test: TR-FRET assay for ERBB kinases; format: biochemical; conditions: geometric mean if measured more than once
Sequence of EGFR L858R/T790M/C797S (P00533 25-1210 T790M/C797S/L858R): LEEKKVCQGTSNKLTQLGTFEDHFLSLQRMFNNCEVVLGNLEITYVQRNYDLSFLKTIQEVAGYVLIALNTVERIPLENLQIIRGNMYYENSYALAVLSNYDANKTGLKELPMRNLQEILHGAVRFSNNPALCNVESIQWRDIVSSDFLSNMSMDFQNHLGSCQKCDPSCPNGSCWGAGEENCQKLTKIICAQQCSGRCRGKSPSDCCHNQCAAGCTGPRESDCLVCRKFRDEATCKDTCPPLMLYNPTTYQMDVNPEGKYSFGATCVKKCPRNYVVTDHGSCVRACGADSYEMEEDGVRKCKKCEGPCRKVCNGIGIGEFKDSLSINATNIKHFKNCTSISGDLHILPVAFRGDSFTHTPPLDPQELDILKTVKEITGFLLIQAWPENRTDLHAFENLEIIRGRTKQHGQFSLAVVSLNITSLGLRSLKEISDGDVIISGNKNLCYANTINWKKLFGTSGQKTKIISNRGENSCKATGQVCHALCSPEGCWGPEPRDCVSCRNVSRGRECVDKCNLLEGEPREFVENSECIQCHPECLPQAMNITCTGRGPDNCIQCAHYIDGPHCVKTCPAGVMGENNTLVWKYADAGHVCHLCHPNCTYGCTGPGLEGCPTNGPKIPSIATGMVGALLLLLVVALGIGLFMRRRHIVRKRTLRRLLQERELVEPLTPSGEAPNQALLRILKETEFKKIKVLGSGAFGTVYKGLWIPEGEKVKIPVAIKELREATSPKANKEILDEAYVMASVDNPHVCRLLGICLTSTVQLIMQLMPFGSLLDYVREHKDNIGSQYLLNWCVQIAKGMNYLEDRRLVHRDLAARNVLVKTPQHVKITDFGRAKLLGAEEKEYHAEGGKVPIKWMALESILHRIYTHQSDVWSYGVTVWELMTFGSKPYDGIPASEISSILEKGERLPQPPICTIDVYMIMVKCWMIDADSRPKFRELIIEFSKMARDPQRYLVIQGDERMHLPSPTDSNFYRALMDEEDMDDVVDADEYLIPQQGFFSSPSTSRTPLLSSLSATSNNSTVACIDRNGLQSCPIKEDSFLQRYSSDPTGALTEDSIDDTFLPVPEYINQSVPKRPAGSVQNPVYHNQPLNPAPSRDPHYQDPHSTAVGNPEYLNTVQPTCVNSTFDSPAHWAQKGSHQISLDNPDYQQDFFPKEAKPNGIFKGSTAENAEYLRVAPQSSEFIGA
Outline: as §1

[1] = target: EGFR L858R/T790M double mutant (H1975) (Homo sapiens (Human), UniProt P00533, L858R/T790M); test: EGFR protein degradation assay (Western blot); format: cell-based; conditions: 72 hours, 300 nM to 10 nM
Sequence of EGFR L858R/T790M double mutant (H1975) (P00533 25-1210 T790M/L858R): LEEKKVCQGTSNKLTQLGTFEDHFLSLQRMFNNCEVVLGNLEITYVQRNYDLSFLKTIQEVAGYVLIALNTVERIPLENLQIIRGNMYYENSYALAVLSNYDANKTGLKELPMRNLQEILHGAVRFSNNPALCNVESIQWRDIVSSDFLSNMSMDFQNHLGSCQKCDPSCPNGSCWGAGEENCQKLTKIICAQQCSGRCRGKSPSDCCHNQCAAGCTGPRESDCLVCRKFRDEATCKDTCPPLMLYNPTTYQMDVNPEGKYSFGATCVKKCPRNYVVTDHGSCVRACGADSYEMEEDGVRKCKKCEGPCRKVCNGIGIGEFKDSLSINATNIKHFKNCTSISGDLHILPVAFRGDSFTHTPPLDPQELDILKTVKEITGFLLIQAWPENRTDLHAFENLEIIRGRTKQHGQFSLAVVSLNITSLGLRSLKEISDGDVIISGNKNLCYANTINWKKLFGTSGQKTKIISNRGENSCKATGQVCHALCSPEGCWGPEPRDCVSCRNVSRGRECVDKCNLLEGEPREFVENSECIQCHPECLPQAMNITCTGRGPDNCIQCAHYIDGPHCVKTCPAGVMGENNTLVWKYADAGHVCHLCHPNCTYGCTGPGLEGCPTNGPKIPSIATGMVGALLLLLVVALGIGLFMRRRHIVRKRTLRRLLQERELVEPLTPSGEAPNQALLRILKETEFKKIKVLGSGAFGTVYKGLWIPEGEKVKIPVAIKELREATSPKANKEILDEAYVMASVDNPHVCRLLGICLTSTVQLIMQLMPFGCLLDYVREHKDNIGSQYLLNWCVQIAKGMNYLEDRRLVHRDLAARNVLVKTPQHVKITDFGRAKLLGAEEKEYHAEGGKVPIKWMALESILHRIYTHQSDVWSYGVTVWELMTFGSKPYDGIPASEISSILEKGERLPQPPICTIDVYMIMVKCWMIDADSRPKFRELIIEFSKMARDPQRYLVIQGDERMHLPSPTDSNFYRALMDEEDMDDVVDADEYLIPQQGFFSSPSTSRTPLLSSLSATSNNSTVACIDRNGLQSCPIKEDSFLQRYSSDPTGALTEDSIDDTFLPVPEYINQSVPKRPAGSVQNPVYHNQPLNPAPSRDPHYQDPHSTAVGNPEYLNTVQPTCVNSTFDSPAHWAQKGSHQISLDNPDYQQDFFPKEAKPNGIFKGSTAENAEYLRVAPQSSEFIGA
Outline: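 EGFR protein levels were measured by immunoblotting. Lysate protein was quantified by BCA, and 10 μg per sample was separated by SDS/PAGE at 165V for 2 hours and transferred to PVDF. Membranes were blocked in TBS-T with 5% milk for 1 hour, probed overnight at 4° C with EGFR and tubulin antibodies, then secondary antibody for 1 hour, and detected by ECL on a Chemidoc.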

EGFR Exon20NPG = EGFR Exon20NPG (Homo sapiens (Human), UniProt P00533, INS770NPG); test: TR-FRET assay for ERBB kinases; format: biochemical; conditions: geometric mean if measured more than once
Outline: (§2)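 Phosphorylation of fluorescein-labeled poly-GluTyr read as TR-FRET using Tb-pY20 antibody after EDTA stop, with 340 nm excitation. Kinase reaction ran 10 min at room temperature following 10 min compound pre-incubation; substrate mix held 3 mM ATP and 30 µM peptide before addition. Buffer was HEPES pH 7.5.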

HER3 = HER3 (Homo sapiens (Human), UniProt P21860); test: TR-FRET assay for ERBB kinases; format: biochemical; conditions: geometric mean if measured more than once
EGFR Δ19/746/750 = EGFR Δ19/746/750 (Homo sapiens (Human), UniProt P00533, DEL746-750); test: TR-FRET assay for ERBB kinases; format: biochemical; conditions: geometric mean if measured more than once
Outline: as §2

EGFR Δ19/746/750 T790M = EGFR Δ19/746/750 T790M (Homo sapiens (Human), UniProt P00533, DEL746-750/T790M); test: TR-FRET assay for ERBB kinases; format: biochemical; conditions: geometric mean if measured more than once
Outline: as §2

[2] = target: EGFR L858R/T790M/C797S triple mutant (H520*) (Homo sapiens (Human), UniProt P00533, C797S/L858R/T790M); test: EGFR protein degradation assay (Western blot); format: cell-based; conditions: 72 hours, 300 nM to 10 nM
Outline: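 EGFR loss in the triple-mutant line measured by immunoblot: clarified lysates normalised by BCA, run on 4-12% Bis-Tris gels, blotted to PVDF, probed with HRP anti-rabbit secondary. Before lysis, cells were dosed from 1, 0.3, 0.1, 0.03 and 0.01 mM DMSO stocks (not final concentrations) after overnight culture at 37° C.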

[3] = target: EGFR-wt (MDA-MB-231 or MCF7 or A549 or OVCAR8) (Homo sapiens (Human), UniProt P00533); test: EGFR protein degradation assay (Western blot); format: cell-based; conditions: 72 hours, 300 nM to 10 nM
Outline: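 EGFR degradation was assessed by Western blot. Cells expressing the appropriate EGFR were seeded in 6-well plates (300,000 cells per well) and adhered overnight. Media was removed, cells were washed with cold phosphate-buffered saline, scraped into 400 μl Cell Signaling lysis buffer plus protease inhibitor cocktail, and spun once at 10 000 rpm for 10 minutes. After BCA quantification, loading buffer and reducing agent were added. Gels loaded with 10 μg protein ran at 165V for 2 hours, and bands were visualized by chemiluminescence.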

Sequence of EGFR L858R/T790M (P00533 25-1210 T790M/L858R): as above

| SMILES | pIC50 (EGFR L858R/T790M) | pIC50 (EGFR WT) | pIC50 (EGFR L858R/T790M/C797S) | EGFR protein remaining, EGFR L858R/T790M double mutant [1] | pIC50 (EGFR Exon20NPG) | pIC50 (HER3) | pIC50 (EGFR Δ19/746/750) | pIC50 (EGFR Δ19/746/750 T790M) | EGFR protein remaining, EGFR L858R/T790M/C797S triple mutant [2] | EGFR protein remaining, EGFR-wt [3] |
| --- | --- | --- | --- | --- | --- | --- | --- | --- | --- | --- |
| COC1CCN(c2nccc(Nc3cc4c(cn3)nc(COCCOCC(=O)N[C@H](C(=O)N3C[C@@H](O)C[C@@H]3C(=O)N[C@@H](C)c3ccc(-c5scnc5C)cc3)C(C)(C)C)n4C(C)C)n2)CC1 [compound 77] | 5.04 | 4.62 | 5.03 | C (>80% EGFR protein remaining after 72 hours of incubation with the test compound at a concentration of 300 nM) | 4.92 | < 4.52 | – | – | – | – |
| COC1CCN(c2nccc(Nc3cc4c(cn3)nc(COCCOCCOCCOCCOCC(=O)N[C@H](C(=O)N3C[C@H](O)C[C@H]3C(=O)N[C@@H](C)c3ccc(-c5scnc5C)cc3)C(C)(C)C)n4C(C)C)n2)CC1 [Example 81, (2S,4R)-1-((S)-18-(tert-butyl)-1-(1-isopropyl-6-((2-(4-methoxypiperidin-1-yl)pyrimidin-4-yl)amino)-1H-imidazo[4,5-c]pyridin-2-yl)-16-oxo-2,5,8,11,14-pentaoxa-17-azanonadecan-19-oyl)-4-hydroxy-N—((S)-1-(4-(4-methylthiazol-5-yl)phenyl)ethyl)pyrrolidine-2-carboxamide] | 5.07 | 5.62 | < 4.52 | C (>80% EGFR protein remaining after 72 hours of incubation with the test compound at a concentration of 300 nM) | 5.15 | < 4.52 | – | – | – | – |
| COC1CCN(c2nccc(Nc3cc4c(cn3)nc(COCCON3CCN(c5ccc6c(c5)C(=O)N(C5CCC(=O)NC5=O)C6=O)CC3)n4C(C)C)n2)CC1 (stereo not shown) [compound 72] | < 4.52 | < 4.52 | 4.52 | C (>80% EGFR protein remaining after 72 hours of incubation with the test compound at a concentration of 300 nM) | 4.66 | < 4.52 | – | – | – | – |
| COC1CCN(c2nccc(Nc3cc4c(cn3)nc(COCCOCCOCCOCCON3CCN(c5ccc6c(c5)C(=O)N(C5CCC(=O)NC5=O)C6=O)CC3)n4C(C)C)n2)CC1 (stereo not shown) [compound 75] | < 4.52 | < 4.52 | < 4.52 | C (>80% EGFR protein remaining after 72 hours of incubation with the test compound at a concentration of 300 nM) | < 4.52 | < 4.52 | – | – | – | – |
| Cc1ncsc1-c1ccc([C@H](C)NC(=O)[C@H]2C[C@H](O)CN2C(=O)[C@@H](NC(=O)COCCOCCOCC#Cc2cccc3c2C(=O)N(C(C(=O)Nc2nccs2)c2cc(F)ccc2O)C3)C(C)(C)C)cc1 (stereo partly shown) [compound 84] | 6.17 | 5.74 | 6.57 | C (>80% EGFR protein remaining after 72 hours of incubation with the test compound at a concentration of 300 nM) | 5.28 | < 4.52 | – | – | – | – |
| COC1CCN(c2nccc(Nc3cc4c(cn3)nc(COCCOCCON3CCN(c5ccc6c(c5)C(=O)N(C5CCC(=O)NC5=O)C6=O)CC3)n4C(C)C)n2)CC1 (stereo not shown) [compound 74] | < 4.52 | < 4.52 | 5.00 | C (>80% EGFR protein remaining after 72 hours of incubation with the test compound at a concentration of 300 nM) | < 4.52 | < 4.52 | – | – | – | – |
| COC1CCN(c2nccc(Nc3cc4c(cn3)nc(COCCCN3CCN(CCCOc5ccc6c(c5)C(=O)N(C5CCC(=O)NC5=O)C6=O)CC3)n4C(C)C)n2)CC1 (stereo not shown) [compound 89] | 5.80 | < 4.52 | 6.19 | C (>80% EGFR protein remaining after 72 hours of incubation with the test compound at a concentration of 300 nM) | < 4.52 | < 4.52 | – | – | – | – |
| O=C1CCC(N2C(=O)c3ccc(NCCOCCOCC#Cc4cccc5c4C(=O)N(C(C(=O)Nc4nccs4)c4cc(F)ccc4O)C5)cc3C2=O)C(=O)N1 (stereo not shown) [compound 83] | 5.60 | 5.52 | 5.92 | C (>80% EGFR protein remaining after 72 hours of incubation with the test compound at a concentration of 300 nM) | < 4.52 | < 4.52 | – | – | – | – |
| COC1CCN(c2nccc(Nc3cc4c(cn3)nc(COCCOCCOCCOCC(=O)N[C@H](C(=O)N3C[C@@H](O)C[C@@H]3C(=O)N[C@@H](C)c3ccc(-c5scnc5C)cc3)C(C)(C)C)n4C(C)C)n2)CC1 [compound 79] | 4.54 | < 4.52 | 5.12 | C (>80% EGFR protein remaining after 72 hours of incubation with the test compound at a concentration of 300 nM) | < 4.52 | < 4.52 | – | – | – | – |
| O=C1CCC(N2C(=O)c3ccc(NCCOCCOCCOCC#Cc4cccc5c4C(=O)N(C(C(=O)Nc4nccs4)c4cc(F)ccc4O)C5)cc3C2=O)C(=O)N1 (stereo not shown) [Example 82, 2-(7-(3-(2-(2-(2-((2-(2,6-dioxopiperidin-3-yl)-1,3-dioxoisoindolin-5-yl)amino)ethoxy)ethoxy)ethoxy)prop-1-yn-1-yl)-1-oxoisoindolin-2-yl)-2-(5-fluoro-2-hydroxyphenyl)-N-(thiazol-2-yl)acetamide] | 6.11 | 5.42 | 6.35 | C (>80% EGFR protein remaining after 72 hours of incubation with the test compound at a concentration of 300 nM) | < 4.52 | < 4.52 | – | – | – | – |
| Cc1ncsc1-c1ccc([C@H](C)NC(=O)[C@@H]2C[C@@H](O)CN2C(=O)[C@@H](NC(=O)CN2CCN(CCOCCOCCOCCOCC#Cc3cccc4c3C(=O)N(C(C(=O)Nc3nccs3)c3cc(F)ccc3O)C4)CC2)C(C)(C)C)cc1 (stereo partly shown) [compound 309] | 6.92 | 8.14 | 7.60 | – | – | – | 5.72 | 5.29 | C (>80% EGFR protein remaining after 72 hours of incubation with the test compound at a concentration of 300 nM) | – |
| CC(C)n1nc(N2CC(CN3CCN(CC4CCN(c5ccc6c(c5)C(=O)N(C5CCC(=O)NC5=O)C6=O)CC4)CC3)C2)c2cnc(Nc3ccnc(-c4cnn(S(=O)(=O)C5CC5)c4)n3)cc21 (stereo not shown) [compound 313] | 9.54 | 8.85 | 9.59 | – | – | – | 8.12 | 8.80 | A (≤50% EGFR protein remaining after 72 hours of incubation with the test compound at a concentration between 300 nM and 10 nM) | C (>80% EGFR protein remaining after 72 hours of incubation with the test compound at a concentration of 300 nM) |
